Converted amounts (≈) assume the structure as drawn.
How the values were obtained:
[1] = system: human promyelocytic leukemia cell HL-60; settings: HL-60, MTT, 48 h
Experimental: (§1) The purpose of the assay is to evaluate the in vitro cell proliferation inhibition or cytotoxic activity of a tested sample.
(§2) U937 and HL-60 were suspension cells, and cells in a logarithmic growth phase were selected and prepared into a 2×10^5/ml cell suspension by a RPMI 1640 culture medium containing 10% fetal bovine serum. And the cell suspension was inoculated in a 96-well culture plate, and each well was 50 μL and the 96-well culture plate was cultured at 37° C. and 5% CO2 for 24 hours. 50 μL of a culture medium containing different concentrations of the tested sample isovaleryl spiramycin I, isovaleryl spiramycin II, or isovaleryl spiramycin III was added in the experimental group, while a culture medium containing the same volume of solvent was added into the control group. Each group was set up with 3 parallel wells that were cultured at 37° C. and 5% CO2 for 48 h. And 10 μL of freshly prepared medium containing 5 mg/ml MTT was added into each well for continuous incubation for 4 hours at 37° C. The crystals were dissolved in 100 μL of a triple solution (SDS 10 g, 10 M HCl 0.1 mL, isobutanol 5 mL, diluted with distilled water to 100 mL), and incubated at 37° C. for 12 hours. The optical density value was measured at 492 nm with a microplate reader.
(§3) The inhibition rate of the medicament on tumor cell growth is calculated according to the following formula:
(§4) Tumor cell growth inhibition rate (%)=[A492 (negative control)−A492 (dosing group)]/A492 (negative control)×100%
(§5) And the half-inhibitory concentration (IC50) of the sample is determined therefrom.

[2] = system: human tissue lymphoma cell U937; settings: U937, MTT, 48 h
Experimental: as §1, §2, §3, §4, §5

[3] = system: transplanted tumor of human hepatoma cell HepG-2; assay: HepG-2 transplanted tumor in nude mice; settings: for Tumor Volume (mm3) (d 1): d1
Experimental: (§6) Then cell concentration was adjusted to 1×10^7/ml with matrigel, then each nude mouse was inoculated subcutaneously with 0.2 ml of cells at its right armpit and recorded as the first day of inoculation. When the tumor grows to be greater than or equal to 100 mm^3, the mice were randomly divided into 11 groups with 6 mice in each group: a model group, a cyclophosphamide group, isovaleryl spiramycin I groups with doses of 25, 50 and 100 mg/kg, isovaleryl spiramycin II groups with doses of 25, 50 and 100 mg/kg, and isovaleryl spiramycin III groups with doses of 25, 50 and 100 mg/kg. Each group was continuously administered intragastrically for 30 days with a dose of 20 ml/kg. The mice were sacrificed the next day after drug withdrawal and the indicators were tested. The long diameter and short diameter of the tumor, and the body weight of each mouse were recorded every 3 days from drug administration to nude mouse sacrifice.
(§7) The body weight of the nude mice and the long diameter (a) and short diameter (b) of the transplanted tumor were measured every 3 days, and the tumor volume (v), relative tumor volume (RTV) and relative tumor proliferation rate (T/C) are calculated respectively according to the following formulas, wherein V=a×b^2/2; RTV=V/V0 (V0 is the tumor volume before administration, V is the tumor volume before sacrifice), and T/C (%)=treatment group RTV/model control group RTV×100%.
(§8) Each mouse was weighed and sacrificed. After the tumor was completely stripped off from the body of the mouse, the non-tumor tissues such as blood stains and fat were removed to weigh the tumor and calculate the tumor growth inhibition rate. The average tumor weight of each group of mice is used as an indicator of efficacy. Tumor growth inhibition rate (%)=(1−the average tumor weight of the treatment group/the average tumor weight of the model group)×100%.

[4] = system: transplanted tumor of human cervical cancer cell HeLa; assay: HeLa transplanted tumor in nude mice; settings: for Tumor Volume (mm3) (d 1): d1
Experimental: as §6, with “HeLa cells in a logarithmic growth phase were taken and subjected to a trypan blue exclusion experiment showing that the cell viability was more than 95%, then the cells were subjected to trypsinization, centrifugation, and supernatant removal. Then” for “Then”
as §7, §8

[5] = HepG-2, high dose (100 mg/kg in method) i.g. 30 days
[6] = HepG-2, low dose (25 mg/kg in method) i.g. 30 days
[7] = HepG-2, medium dose (50 mg/kg in method) i.g. 30 days
[8] = HeLa, high dose (100 mg/kg in method) i.g. 30 days
[9] = HeLa, low dose (25 mg/kg in method) i.g. 30 days
[10] = HeLa, medium dose (50 mg/kg in method) i.g. 30 days

CO[C@@H]1[C@@H](O[C@@H]2O[C@H](C)[C@@H](O[C@H]3C[C@@](C)(O)[C@@H](OC(=O)CC(C)C)[C@H](C)O3)[C@H](N(C)C)[C@H]2O)[C@@H](CC=O)C[C@@H](C)[C@@H](O[C@H]2CC[C@H](N(C)C)[C@@H](C)O2)/C=C/C=C/C[C@@H](C)OC(=O)C[C@H]1O [Isovaleryl spiramycin I, isovaleryl spiramycin I]
IC50 [1]: 16.52 ± 1.26 µg/mL (≈ 17.8 µM) | IC50 [2]: 10.88 ± 0.05 µg/mL (≈ 11.7 µM) | Relative Tumor Proliferation Rate (T/C) [3, 5]: 27.49% | tumor growth inhibition rate [3, 5]: 68.22% | Relative Tumor Proliferation Rate (T/C) [3, 6]: 65.03% | tumor growth inhibition rate [3, 6]: 24.43% | tumor volume and relative tumor volume compared with the model group ([3]; HepG-2, low, medium and high doses, P<0.05): significantly lower | Relative Tumor Proliferation Rate (T/C) [3, 7]: 42.12% | tumor growth inhibition rate [3, 7]: 57.93% | Inhibition Rate (%) ([3]; HepG-2 nude mice, 25 mg/kg): 24.43% | Relative Tumor Proliferation Rate (T/C) ([3]; HepG-2 nude mice, 25 mg/kg): 65.03% | Relative Tumor Volume (RTV) ([3]; HepG-2 nude mice, 25 mg/kg): 10.89 ± 2.67 | Tumor Weight ([3]; HepG-2 nude mice, 25 mg/kg): 1.84 ± 0.23 g | Tumor Volume (mm3) (d 1) ([3]; HepG-2 nude mice, 25 mg/kg): 114.02 ± 11.68 mm3 | Tumor Volume (mm3) (d30) ([3]; HepG-2 nude mice, 25 mg/kg): 1248.33 ± 337.59 mm3 | Inhibition Rate (%) ([3]; HepG-2 nude mice, 50 mg/kg): 57.93% | Relative Tumor Proliferation Rate (T/C) ([3]; HepG-2 nude mice, 50 mg/kg): 42.12% | Relative Tumor Volume (RTV) ([3]; HepG-2 nude mice, 50 mg/kg): 7.05 ± 3.35 | Tumor Weight ([3]; HepG-2 nude mice, 50 mg/kg): 1.02 ± 0.45 g | Tumor Volume (mm3) (d 1) ([3]; HepG-2 nude mice, 50 mg/kg): 122.31 ± 4.68 mm3 | Tumor Volume (mm3) (d30) ([3]; HepG-2 nude mice, 50 mg/kg): 851.37 ± 371.80 mm3 | Inhibition Rate (%) ([3]; HepG-2 nude mice, 100 mg/kg): 68.22% | Relative Tumor Proliferation Rate (T/C) ([3]; HepG-2 nude mice, 100 mg/kg): 27.49% | Relative Tumor Volume (RTV) ([3]; HepG-2 nude mice, 100 mg/kg): 4.60 ± 3.39 | Tumor Weight ([3]; HepG-2 nude mice, 100 mg/kg): 0.77 ± 0.44 g | Tumor Volume (mm3) (d 1) ([3]; HepG-2 nude mice, 100 mg/kg): 110.06 ± 9.58 mm3 | Tumor Volume (mm3) (d30) ([3]; HepG-2 nude mice, 100 mg/kg): 481.16 ± 326.94 mm3 | mouse weight compared with the model group ([3]; mouse, in vivo): no significant changes | Body Weight (g) (d1) ([3]; mouse, in vivo, 25 mg/kg): 21.36 ± 1.67 g | Body Weight (g) (d30) ([3]; mouse, in vivo, 25 mg/kg): 23.24 ± 1.33 g | Body Weight (g) (d1) ([3]; mouse, in vivo, 50 mg/kg): 21.47 ± 1.58 g | Body Weight (g) (d30) ([3]; mouse, in vivo, 50 mg/kg): 23.64 ± 1.67 g | Body Weight (g) (d1) ([3]; mouse, in vivo, 100 mg/kg): 21.37 ± 1.36 g | Body Weight (g) (d30) ([3]; mouse, in vivo, 100 mg/kg): 22.867 ± 1.57 g | Inhibition Rate (%) ([4]; HeLa nude mice, 12.5 mg/kg): 46.69% | Relative Tumor Proliferation Rate (T/C) ([4]; HeLa nude mice, 12.5 mg/kg): 69.18% | Relative Tumor Volume (RTV) ([4]; HeLa nude mice, 12.5 mg/kg): 11.47 ± 4.97 | Tumor Weight ([4]; HeLa nude mice, 12.5 mg/kg): 1.03 ± 0.59 g | Tumor Volume (mm3) (d 1) ([4]; HeLa nude mice, 12.5 mg/kg): 112.43 ± 6.87 mm3 | Tumor Volume (mm3) (d30) ([4]; HeLa nude mice, 12.5 mg/kg): 1287.77 ± 552.57 mm3 | Inhibition Rate (%) ([4]; HeLa nude mice, 25 mg/kg): 51.57% | Relative Tumor Proliferation Rate (T/C) ([4]; HeLa nude mice, 25 mg/kg): 39.57% | Relative Tumor Volume (RTV) ([4]; HeLa nude mice, 25 mg/kg): 6.56 ± 0.55 | Tumor Weight ([4]; HeLa nude mice, 25 mg/kg): 0.94 ± 0.48 g | Tumor Volume (mm3) (d 1) ([4]; HeLa nude mice, 25 mg/kg): 112.78 ± 9.72 mm3 | Tumor Volume (mm3) (d30) ([4]; HeLa nude mice, 25 mg/kg): 738.39 ± 75.32 mm3 | Inhibition Rate (%) ([4]; HeLa nude mice, 50 mg/kg): 65.55% | Relative Tumor Proliferation Rate (T/C) ([4]; HeLa nude mice, 50 mg/kg): 30.91% | Relative Tumor Volume (RTV) ([4]; HeLa nude mice, 50 mg/kg): 5.13 ± 0.68 | Tumor Weight ([4]; HeLa nude mice, 50 mg/kg): 0.67 ± 0.09 g | Tumor Volume (mm3) (d 1) ([4]; HeLa nude mice, 50 mg/kg): 114.15 ± 6.08 mm3 | Tumor Volume (mm3) (d30) ([4]; HeLa nude mice, 50 mg/kg): 588.18 ± 73.34 mm3 | Relative Tumor Proliferation Rate (T/C) [4, 8]: 30.91% | tumor growth inhibition rate [4, 8]: 65.55% | Relative Tumor Proliferation Rate (T/C) [4, 9]: 69.18% | tumor growth inhibition rate [4, 9]: 46.69% | tumor volume and relative tumor volume compared with the model group ([4]; HeLa, low, medium and high doses, P<0.05): significantly lower | Relative Tumor Proliferation Rate (T/C) [4, 10]: 39.57% | tumor growth inhibition rate [4, 10]: 51.57% | mouse weight compared with the model group ([4]; mouse, in vivo): no significant changes | Body Weight (g) (d1) ([4]; mouse, in vivo, 12.5 mg/kg): 20.72 ± 0.49 g | Body Weight (g) (d30) ([4]; mouse, in vivo, 12.5 mg/kg): 21.10 ± 0.68 g | Body Weight (g) (d1) ([4]; mouse, in vivo, 25 mg/kg): 21.07 ± 0.44 g | Body Weight (g) (d30) ([4]; mouse, in vivo, 25 mg/kg): 21.23 ± 0.73 g | Body Weight (g) (d1) ([4]; mouse, in vivo, 50 mg/kg): 20.82 ± 0.72 g | Body Weight (g) (d30) ([4]; mouse, in vivo, 50 mg/kg): 20.95 ± 0.45 g
